The text below walks through data of paper PMC9767876, “Development of a robust and convenient dual-reporter high-throughput screening assay for SARS-CoV-2 antiviral drug discovery” (Antiviral Research, 2023).

Structures are written as SMILES. Like-named read-outs stand apart in the source and are kept apart here.

Data set [1] can be described thus: in vitro. The note with it: human.
The test system of data set [2] is SARS-CoV-2_mNeonGreen virus (Wuhan strain). The data set can be described thus: microbe, parasite or virus in culture. It is filed as cell-based. The conditions noted are these: for EC50: read-out: EC50 Mean ± SD (antiviral activity).
In data set [3] the test system is A549+hACE2+hTMPRSS2_mCherry cells.
Setting [4] is: Severe acute respiratory syndrome coronavirus 2.

The term EC50 denotes the concentration at which the effect is half-maximal. Consider `C/C=C/C[C@@H](C)[C@@H](O)[C@H]1C(=O)N[C@@H](CC)C(=O)N(C)[C@H](C)C(=O)N(CC)[C@@H](C(C)C)C(=O)N[C@@H](C(C)C)C(=O)N(C)[C@@H](CC(C)C)C(=O)N[C@@H](C)C(=O)N[C@H](C)C(=O)N(C)[C@@H](CC(C)C)C(=O)N(C)[C@@H](CC(C)C)C(=O)N(C)[C@@H](C(C)C)C(=O)N1C` [Alisporivir], for which the CC50 in data set [1] came to 23.8 ± 4.75 µM. Also, the EC50 in data set [2] (setting [4]) is 1.46 ± 0.13 µM.
As for `CCn1c(CO)nn(-c2cc(O[C@@H](C)C(F)(F)F)c(C(=O)Nc3c(F)cccc3Cl)cc2F)c1=O` [BAY-2402234], in data set [2], the half-maximal effective concentration (EC50) turned out to be 0.005 ± 0.001 µM.
`CN(C)C(=O)COC(=O)Cc1ccc(OC(=O)c2ccc(NC(=N)N)cc2)cc1` [Camostat]: in data set [1], the CC50 is > 50 µM. In addition, the concentration for a half-maximal effect (EC50) in data set [2] (setting [4]) is > 50 µM.
On to `Cn1cnc(Cn2c(=O)[nH]/c(=N\c3cc4cn(C)nc4cc3Cl)n(Cc3cc(F)c(F)cc3F)c2=O)n1` [Ensitrelvir], for which the CC50 in data set [1] was > 50 µM. Also, the half-maximal effective concentration (EC50) in data set [2] (setting [4]) worked out at 0.26 ± 0.043 µM.
As for `N#C[C@@]1(c2ccc3c(N)ncnn23)O[C@H](CO)[C@@H](O)[C@H]1O` [GS-441524], the CC50 in data set [1] was > 50 µM. In data set [2], the “selectivity index (SI)” value is reported as > 30. Moreover, the EC50 in data set [2] (setting [4]) was 1.66 ± 0.42 µM.
`CC(C)C(=O)OC[C@H]1O[C@@H](n2ccc(NO)nc2=O)[C@H](O)[C@@H]1O` [Molnupiravir]: the CC50 in data set [1] is > 50 µM. Besides, in data set [2] (setting [4]), the EC50 is 1.26 ± 0.23 µM.
Taken in the same sequence, the figures for `CC(C)(C)[C@H](NC(=O)C(F)(F)F)C(=O)N1C[C@H]2[C@@H]([C@H]1C(=O)N[C@H](C#N)C[C@@H]1CCNC1=O)C2(C)C` [Nirmatrelvir] were > 50 µM and 0.12 ± 0.017 µM.
With `COc1cccc2[nH]c(C(=O)N[C@@H](CC(C)C)C(=O)N[C@@H](C[C@@H]3CCNC3=O)C(=O)CO)cc12` [PF-00835231], in data set [3], the CC50 is > 50 µM. Moreover, in data set [2], the “selectivity index (SI)” value was > 115 and the half-maximal effective concentration (EC50) stood at 0.43 ± 0.08 µM.
For the compound `CCC(CC)COC(=O)[C@H](C)N[P@](=O)(OC[C@H]1O[C@@](C#N)(c2ccc3c(N)ncnn23)[C@H](O)[C@@H]1O)Oc1ccccc1` [Remdesivir], the CC50 in data set [1] is > 50 µM. The EC50 in data set [2] (setting [4]) worked out at 0.04 ± 0.005 µM.
